According to PubChem BioAssay (NCI):
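These data come from cells grown in 96-well plates and exposed to compound for 48 hours at five concentrations. TGI: concentration producing complete growth inhibition.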

Assays:
Experiment in all cases: growth of human tumour cells (NCI), 48 h
M14 melanoma = tested on: M14 melanoma
MDA-MB-231 breast = tested on: MDA-MB-231 breast
MDA-N = tested on: MDA-N
MOLT-4 leukemia = tested on: MOLT-4 leukemia
NCI-H23 lung = tested on: NCI-H23 lung
NCI-H460 lung = tested on: NCI-H460 lung
SNB-75 CNS = tested on: SNB-75 CNS
UACC-257 melanoma = tested on: UACC-257 melanoma
UO-31 renal = tested on: UO-31 renal
HCC-2998 colon = tested on: HCC-2998 colon

| SMILES | TGI (M14 melanoma) [µM] | TGI (MDA-MB-231 breast) [µM] | TGI (MDA-N) [µM] | TGI (MOLT-4 leukemia) [µM] | TGI (NCI-H23 lung) [µM] | TGI (NCI-H460 lung) [µM] | TGI (SNB-75 CNS) [µM] | TGI (UACC-257 melanoma) [µM] | TGI (UO-31 renal) [µM] | TGI (HCC-2998 colon) [µM] |
| --- | --- | --- | --- | --- | --- | --- | --- | --- | --- | --- |
| CCCC(CCC(=O)O)(CCC(=O)O)[N+](=O)[O-] | > 100 | > 100 | > 100 | > 100 | > 100 | > 100 | > 100 | > 100 | > 100 |  |
| CCN1CC2(CO)CCC(OC)C34C5CC6C(OC)CC(O)(C5C6OC)C(O)(C(OC)C23)C14 (centres undefined) |  |  |  | > 375 | > 375 | > 375 | > 375 | > 375 | > 375 | > 375 |
| O/N=C1/C(=C/c2ccc(Br)cc2)CCCC1C(NO)c1ccc(Br)cc1 (centres undefined) | 29.9 |  |  | 31.7 |  |  | 36.4 | 33.3 | 31.3 |  |
| CC(C)c1cccc(C(C)C)c1NC(=O)/C(Cc1nc2ccc(Cl)cc2[nH]c1=O)=N\NC(=O)C[N+](C)(C)C | > 100 |  |  | > 100 | > 100 | > 100 |  | > 100 | > 100 | > 100 |
| CC(=O)Nc1ccc(S(=O)(=O)Nc2cnc3ccccc3n2)cc1 | > 100 |  |  | > 100 | > 100 | > 100 | > 100 | > 100 | > 100 | > 100 |
| O=C(Cn1cc(I)c(C(=O)NCC(O)CO)n1)NCC(O)CO (centres undefined) | > 100 |  |  | > 100 | > 100 | > 100 | > 100 | > 100 | > 100 | > 100 |
| Cc1ccc(C2=C(c3ccccc3)C(O)(c3ccccc3)C(c3ccccc3)=C2c2ccc(C)cc2)cc1 | > 100 |  |  |  | > 100 | > 100 | > 100 | > 100 | > 100 | > 100 |
| CCOC(=O)C1=C(C)NC(c2ccccc2)=C(C(=O)OCc2ccccc2)C1C#Cc1ccccc1 (centres undefined) | > 100 |  | > 100 | > 100 | > 100 |  | > 100 | > 100 | > 100 |  |
| Nc1nc(Cl)cc(OCC2(CO)CCCCC2)n1 |  |  | > 100 | > 100 | > 100 | > 100 | > 100 | > 100 |  | 82.1 |
| COc1ccc(/C=N/NC(=O)NCCNCCO)cc1 | > 100 |  |  | > 100 | > 100 | > 100 | > 100 | > 100 | > 100 |  |
| CC(C)C(N=C1CC2CCC1(C(=O)Nc1ccccc1O)C2(C)C)c1ccccc1 (centres undefined) | > 10 |  |  | > 10 | > 10 | > 10 | > 10 | > 10 | > 10 | > 10 |
| c1ccc(C2SCc3nc4ccccc4n32)cc1 (centres undefined) | > 100 |  |  | > 100 | > 100 | > 100 | 69.8 | 77.6 | > 100 | > 100 |
| Cc1[nH]c(-c2ccccc2)c(O)c1C(=O)OC1CC(C)CCC1C(C)C (centres undefined) | 29 | 29 | 29.9 | 28.1 | 26.6 | 28.6 | 34.3 | 29.5 | 26 |  |
| C#CCN(Cc1ccc2nc(-c3ccccc3)c(Cl)nc2c1)c1ccc(Cl)c(Cl)c1 | > 100 |  |  | > 100 | > 100 | > 100 | > 100 | > 100 | > 100 | 96.8 |
| N#Cc1cc([N+](=O)[O-])ccc1NC(=O)C(=O)Nn1c(=S)[nH]c2ccccc2c1=O | > 100 |  |  |  | > 100 | > 100 | > 100 | > 100 | > 100 | > 100 |
| CCN(CC)CCNC(=O)C1COc2ccc(-c3cc(=O)c4ccccc4o3)cc2O1 (centres undefined) |  |  |  | 57.9 | 60.3 | 36.2 | 42.7 | 32 | 29.6 | 35.4 |
| C=C1C(=O)OC2C=C(C)CC3C=C(CCC=C(C)CCC12)C(=O)O3 (centres undefined) |  |  |  | 159 | 117 | 148 | 196 | 106 | 234 | 105 |
| COC(=O)C12CCC(CC1=O)C2(C)C (centres undefined) | > 100 |  |  | > 100 | > 100 | > 100 | > 100 | > 100 | > 100 | > 100 |
| Cn1cnc([N+](=O)[O-])c1Sc1nnc(-c2ccc(Cl)cc2)n1C | 26.6 |  |  | 66.1 | 32.1 | 55.7 | 46.7 | 25.5 | 32.8 | 32.3 |
| Nc1ccc(Oc2ccc(C34CC5CC(C3)CC(c3ccc(Oc6ccc(N)c(O)c6)cc3)(C5)C4)cc2)cc1O | 3.05 | 3 |  | > 100 | 4.1 | 3.37 |  | 4.72 | 3.23 |  |
